Test results reported in PMC4844700, “Rifampin phosphotransferase is an unusual antibiotic resistance kinase” (Nature Communications, 2016).

How the values were obtained:
[1] = target: T1, RPH-Lm (rifampin phosphotransferase) (Listeria monocytogenes, UniProt A0A0X1KHF9); test: X-ray crystallography (SAD); settings: Se-Met protein; 5 mM RIF; pH 6; RIF-binding domain; 2.70 Å
T1 construct: full-length from E. coli; crystals and SAXS: His6-tag removed by TEV (pMCSG53 for crystals); kinetics: pET19Tb:rph-Lm; monomer; ATP-grasp 1-314, RIF-BD 327-754, swivel 767-865, catalytic His825

[2] = target: T1, RPH-Lm (rifampin phosphotransferase); test: SAXS, ensemble optimization; assay type: binding; settings: Mg2+; 20 mM Hepes pH 7.5, 100 mM KCl; 10 °C; 10-fold molar excess; non-hydrolysable ATP analogue
[3] = target: T1, RPH-Lm (rifampin phosphotransferase); test: X-ray crystallography; settings: crystallized with 5 mM RIF and 5 mM ATP; RIF-binding domain; 2.85 Å
[4] = test system: CO[C@H]1/C=C/O[C@@]2(C)Oc3c(C)c(O)c4c(O)c(c(/C=N/N5CCN(C)CC5)c(O)c4c3C2=O)NC(=O)/C(C)=C\C=C\[C@H](C)[C@H](O)[C@@H](C)[C@@H](O)[C@@H](C)[C@H](OC(C)=O)[C@@H]1C; test: purified protein; settings: ATP at five times its Km, 50 mM Hepes pH 7.5, 5 mM MgCl2, 40 mM NH4Cl, 25 °C, 11.3 μM enzyme

T1 sequence (A0A0X1KHF9 whole entry, the tested form may be a part): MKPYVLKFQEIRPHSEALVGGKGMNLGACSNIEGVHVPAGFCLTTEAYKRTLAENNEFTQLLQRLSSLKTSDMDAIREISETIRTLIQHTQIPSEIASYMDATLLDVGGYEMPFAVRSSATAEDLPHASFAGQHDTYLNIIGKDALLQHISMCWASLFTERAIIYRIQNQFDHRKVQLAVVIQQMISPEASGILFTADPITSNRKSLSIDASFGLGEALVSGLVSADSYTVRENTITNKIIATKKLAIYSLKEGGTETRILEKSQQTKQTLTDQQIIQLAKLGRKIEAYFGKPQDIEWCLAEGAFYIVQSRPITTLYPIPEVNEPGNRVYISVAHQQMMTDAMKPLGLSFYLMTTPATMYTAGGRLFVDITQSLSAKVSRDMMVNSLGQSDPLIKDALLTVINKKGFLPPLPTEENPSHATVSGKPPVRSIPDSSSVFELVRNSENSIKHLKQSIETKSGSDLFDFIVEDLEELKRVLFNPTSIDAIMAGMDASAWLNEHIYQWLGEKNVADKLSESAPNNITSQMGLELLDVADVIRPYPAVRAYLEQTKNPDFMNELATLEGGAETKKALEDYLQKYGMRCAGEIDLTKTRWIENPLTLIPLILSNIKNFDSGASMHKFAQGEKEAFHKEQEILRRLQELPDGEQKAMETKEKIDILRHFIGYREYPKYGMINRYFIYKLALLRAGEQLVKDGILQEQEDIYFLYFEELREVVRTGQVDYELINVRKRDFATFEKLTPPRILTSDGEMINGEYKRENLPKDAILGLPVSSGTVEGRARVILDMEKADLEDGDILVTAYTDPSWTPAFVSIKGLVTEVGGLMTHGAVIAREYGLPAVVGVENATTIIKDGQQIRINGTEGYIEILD

Molecule: CO[C@H]1/C=C/O[C@@]2(C)Oc3c(C)c(O)c4c(O)c(c(/C=N/N5CCN(C)CC5)c(O)c4c3C2=O)NC(=O)/C(C)=C\C=C\[C@H](C)[C@H](O)[C@@H](C)[C@@H](O)[C@@H](C)[C@H](OC(C)=O)[C@@H]1C [RIF]
- X-ray crystallography (SAD) [1]: 5FBT (RPH-Lm·RIF)

Molecule: Nc1ncnc2c1ncn2[C@@H]1O[C@H](COP(=O)(O)CP(=O)(O)OP(=O)(O)O)[C@@H](O)[C@H]1O [AMP-cPP]
- SAXS, ensemble optimization [2]: RPH-Lm bound to either analogue showed an increase in the ATP-grasp engaged population

Molecule: CO[C@H]1/C=C/O[C@@]2(C)Oc3c(C)c(O)c4c(O)c(c(/C=N/N5CCN(C)CC5)c(O)c4c3C2=O)NC(=O)/C(C)=C\C=C\[C@H](C)[C@H](OP(=O)(O)O)[C@@H](C)[C@@H](O)[C@@H](C)[C@H](OC(C)=O)[C@@H]1C [RIF-P]
- X-ray crystallography [3]: 5FBU (RPH-Lm·RIF-P)

Molecule: Nc1ncnc2c1ncn2[C@@H]1O[C@H](COP(=O)(O)OP(=O)(O)NP(=O)(O)O)[C@@H](O)[C@H]1O [AMP-PnP]
- SAXS, ensemble optimization [2]: RPH-Lm bound to either analogue showed an increase in the ATP-grasp engaged population

Molecule: RPH-Lm (rifampin phosphotransferase) (Listeria monocytogenes serotype 4b str. F2365)
- Km [4]: 0.57 ± 0.15 µM
- kcat [4]: 2.25 ± 0.17 s⁻¹
- kcat/Km [4]: 3.94e+06 M⁻¹ s⁻¹
